In test [1] the target is T1, human D2(long) (Homo sapiens, UniProt P14416). In words: Forskolin-dependent whole cell adenylyl cyclase inhibition assay. The following applies: for effect on quinpirole inhibition of adenylyl cyclase: 10 nM test drug in presence of 10 nM quinpirole; for inhibition of forskolin-dependent cAMP accumulation: 10 nM, human D2long in HEK 293 cells, n = 4; for intrinsic efficacy category at D2 dopamine receptors: based on adenylyl cyclase assay. It is filed as cell-based.
T1 sequence (P14416 whole entry): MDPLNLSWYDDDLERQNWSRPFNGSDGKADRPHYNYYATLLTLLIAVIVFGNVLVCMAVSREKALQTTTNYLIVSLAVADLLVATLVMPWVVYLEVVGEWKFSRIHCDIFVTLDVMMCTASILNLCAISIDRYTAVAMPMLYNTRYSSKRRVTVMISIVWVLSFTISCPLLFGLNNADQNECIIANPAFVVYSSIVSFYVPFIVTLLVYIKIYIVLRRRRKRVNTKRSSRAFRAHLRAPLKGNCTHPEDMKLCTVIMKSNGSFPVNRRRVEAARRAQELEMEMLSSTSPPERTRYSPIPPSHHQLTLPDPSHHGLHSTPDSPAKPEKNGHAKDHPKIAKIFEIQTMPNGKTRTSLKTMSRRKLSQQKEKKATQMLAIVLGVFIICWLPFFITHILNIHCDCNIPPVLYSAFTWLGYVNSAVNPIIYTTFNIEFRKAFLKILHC

In test [2] the target is T1, human D2(long). In words: Competitive radioligand binding, 125I-IABN, D2 dopamine receptors.
The target in test [3] is human D3 (Homo sapiens, UniProt P35462). In words: Competitive radioligand binding, 125I-IABN, D3 dopamine receptors. The following applies: read-out: Ki D3.
Chain of human D3 (P35462 whole entry): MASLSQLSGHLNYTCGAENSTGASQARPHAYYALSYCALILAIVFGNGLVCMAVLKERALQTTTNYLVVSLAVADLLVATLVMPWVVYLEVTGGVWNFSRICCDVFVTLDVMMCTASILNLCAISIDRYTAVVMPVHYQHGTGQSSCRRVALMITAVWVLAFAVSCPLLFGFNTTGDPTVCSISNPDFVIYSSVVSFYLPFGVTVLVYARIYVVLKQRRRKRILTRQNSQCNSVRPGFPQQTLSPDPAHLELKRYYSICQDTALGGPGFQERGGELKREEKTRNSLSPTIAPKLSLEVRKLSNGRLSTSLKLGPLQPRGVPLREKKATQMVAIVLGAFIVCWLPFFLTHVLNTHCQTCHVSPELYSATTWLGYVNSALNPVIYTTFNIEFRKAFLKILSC
The target of test [4] is sigma-1 (σ1) receptors (Cavia porcellus, UniProt Q60492). In words: Sigma-1 receptor binding, [3H]. Also noted: species or system guinea pig. The settings on record: read-out: Ki σ1.
Chain of sigma-1 (σ1) receptors (Q60492 whole entry): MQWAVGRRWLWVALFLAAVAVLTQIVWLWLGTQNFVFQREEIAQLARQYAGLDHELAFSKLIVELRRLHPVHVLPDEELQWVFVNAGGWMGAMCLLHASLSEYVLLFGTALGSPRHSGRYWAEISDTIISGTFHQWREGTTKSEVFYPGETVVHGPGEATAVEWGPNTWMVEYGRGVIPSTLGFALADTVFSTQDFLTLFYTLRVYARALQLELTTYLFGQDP
Test [5] deals with T2, sigma-2 (σ2) receptors (Rattus norvegicus, UniProt Q5U3Y7).
T2 sequence (Q5U3Y7 1-176): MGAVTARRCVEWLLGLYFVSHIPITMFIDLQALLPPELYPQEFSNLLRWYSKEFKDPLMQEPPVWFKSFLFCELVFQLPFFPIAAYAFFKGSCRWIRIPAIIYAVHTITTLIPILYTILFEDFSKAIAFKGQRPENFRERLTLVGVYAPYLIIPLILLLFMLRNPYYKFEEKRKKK
In words: Sigma-2 receptor binding, rat liver membranes. The settings on record: read-out: Ki σ2.

Results on 4 compounds are retold here after article PMC2946321 (Bioorganic & medicinal chemistry, 2010).

On to `COc1ccc2[nH]cc(CN3CCC(O)(c4ccc(I)cc4)CC3)c2c1.O=C(O)C(=O)O` [Compound 7, 4-(4-Iodophenyl)-1-((5-methoxy-1H-indol-3-yl)methyl)piperidin-4-ol oxalate], for which, in test [1], the “effect on quinpirole inhibition of adenylyl cyclase” value was “able to attenuate the effect of quinpirole”, the “inhibition of forskolin-dependent cAMP accumulation” value is on record as “no appreciable increase or decrease” and the “intrinsic efficacy category at D2 dopamine receptors” value was “neutral antagonists”.
As to `CN1CN(c2ccccc2)C2(CCN(Cc3coc4ccccc34)CC2)C1=O.O=C(O)C(=O)O` [Compound 25, 8-(Benzofuran-3-ylmethyl)-3-methyl-1-phenyl-1,3,8-triazaspiro[4.5]decan-4-one oxalate], the “D3:D2 (Ki for D3 receptors/Ki for D2 receptors)” value in test [2] amounted to 0.3.
In the case of `COc1cccc2[nH]cc(CN3CCC(O)(c4ccc(I)cc4)CC3)c12.O=C(O)C(=O)O` [Compound 6, 4-(4-Iodophenyl)-1-((4-methoxy-1H-indol-3-yl)methyl)piperidin-4-ol oxalate], in test [1], the “effect on quinpirole inhibition of adenylyl cyclase” value is on record as “able to attenuate the effect of quinpirole”, the “inhibition of forskolin-dependent cAMP accumulation” value is listed as “no appreciable increase or decrease” and the “intrinsic efficacy category at D2 dopamine receptors” value is “neutral antagonists”.
“1-(Benzo[b]thiophen-2-ylmethyl)-4-(4-bromophenyl)piperidin-4-ol oxalate [Compound 20]”: the “D3:D2 (Ki for D3 receptors/Ki for D2 receptors)” value in test [2] was determined as 3.0. Also, the Ki was found to be 46.8 ± 3 nM in test [2] (read-out: Ki D2), 142 ± 27 nM in test [3], 2.13 ± 0.44 nM in test [4] and 1960 ± 177 nM in test [5].
